Test results published in paper PMC5626944 (Frontiers in Pharmacology, 2017).
Where two headings read alike, the source gives them in different places.

Tests used:
Opioid, Delta 2 (h) = assay: NovaScreen competition binding; parameters: species or system human; settings: 1 µM
[1] = biological target: T1, High-sensitivity α4(2)β2(3) nAChRs (Mus musculus, UniProt O70174+Q9ERK7); assay: 86Rb+ efflux from thalamic and cortical synaptosomes, DhβE-sensitive component; type: biochemical
T1 construct: from tissue; host or cells: WT mouse thalamic and cortical synaptosomes
Method: Regions of interest were dissected from fresh mouse brains and homogenized in ice-cold isotonic sucrose (0.32 M), buffered with HEPES (5 mM, pH 7.5). The suspension was centrifuged at 12,000 × g for 20 min.

α6β2* nAChRs = α6β2* nAChRs (Mus musculus, UniProt Q9ERK7+Q9R0W9); assay: biochemical; type: biochemical; settings: for EC50: read-out: Neurotransmitter release EC50 (converted); for Emax: relative to nicotine
Method: Regions of interest were dissected from fresh mouse brains and homogenized in ice-cold isotonic sucrose (0.32 M), buffered with HEPES (5 mM, pH 7.5). The suspension was centrifuged at 12,000 × g for 20 min. The pellet was re-suspended in the appropriate uptake buffer ([Grady et al., 2001]; [Salminen et al., 2004]; [Marks et al., 2006]) and used immediately.
Superfusion was carried out at 22°C using a buffer containing: NaCl, 128 mM; KCl, 2.4 mM; CaCl2, 3.2 mM; MgSO4, 1.2 mM; KH2PO4, 1.2 mM; HEPES, 25 mM; glucose, 10 mM; ascorbic acid, 1 mM; pargyline, 0.01 mM; 0.1% BSA; nomifensine, 1 μM (to prevent the re-uptake of dopamine); atropine, 1 μM (to prevent muscarinic receptor activation); pH 7.5. Superfusion proceeded at 0.7 mL/min for 10 min before stimulation with agonist for 20 s. Selected aliquots were perfused with α-CtxMII (50 nM) for 3 min immediately before stimulation. This concentration of α-CtxMII was sufficient to inhibit α6β2^∗-nAChRs in the mouse striatum ([Salminen et al., 2004], [2007]). Fractions (∼0.1 mL) were collected into 96-well plates at 10 s intervals for 4 min (starting ∼1 min before stimulation). After adding 0.15 mL of Optiphase SuperMix scintillation cocktail, radioactivity was measured using a 1450 MicroBeta TriLux counter (Perkin Elmer Life Sciences).

[2] = tested on: T2, Thromboxane A2 (h) [SQ 29,548]; assay: NovaScreen competition binding; parameters: species or system human; settings: 1 µM
T2 construct: PerkinElmer – Caliper Life Sciences (NovaScreen service)

Serotonin, 5HT1A (h) = assay: NovaScreen competition binding; parameters: species or system human; settings: 1 µM
[3] = tested on: T3, Phosphodiesterase, PDE4A1A (h); assay: NovaScreen enzyme assay; type: biochemical, human; settings: 1 µM
T3 construct: PerkinElmer – Caliper Life Sciences (NovaScreen service)

Adrenergic, Beta 2 (h) = assay: NovaScreen competition binding; parameters: species or system human; settings: 1 µM
Dopamine Transporter = assay: NovaScreen competition binding; settings: 1 µM
Adrenergic, Alpha 1B = tested on: T4, Adrenergic, Alpha 1B; assay: NovaScreen competition binding; settings: 1 µM
T4 construct: PerkinElmer – Caliper Life Sciences (NovaScreen service)

[4] = biological target: Glutamate,NMDA,Glycine (Stry-insens Site) (Ionot (Rattus norvegicus, UniProt P35439)); assay: NovaScreen competition binding
Serotonin, 5HT2A = assay: NovaScreen competition binding; settings: 1 µM
Serotonin, 5HT1D = assay: NovaScreen competition binding; settings: 1 µM
Serotonin, 5HT5A (h) = assay: NovaScreen competition binding; parameters: species or system human; settings: 1 µM
[5] = tested on: T5, Adenosine Transporter (h); assay: NovaScreen competition binding; parameters: species or system human; settings: 1 µM
T5 construct: PerkinElmer – Caliper Life Sciences (NovaScreen service)

Histamine, H1 = tested on: T6, Histamine, H1; assay: NovaScreen competition binding; settings: 1 µM
T6 construct: PerkinElmer – Caliper Life Sciences (NovaScreen)

Muscarinic, M5 (h) = assay: NovaScreen competition binding; parameters: species or system human; settings: 1 µM
Neuropeptide, NPY2 (h) = tested on: T7, Neuropeptide, NPY2 (h); assay: NovaScreen competition binding; parameters: species or system human; settings: 1 µM
T7 construct: PerkinElmer – Caliper Life Sciences (NovaScreen service)

male Wistar rats = assay: Rat intravenous nicotine self-administration; type: in vivo; settings: 0.01, 0.025, 0.05, 0.08 mg/kg ip, 20 min before session; nicotine 0.03 mg/kg/inf
Source text: Operant chambers (Med Associates, East Fairfield, VT, United States) were used for food delivery and the intravenous self-administration (IVSA) of nicotine.
For IV catheter implantation, the rats were anesthetized using 1–3% isoflurane inhalation in oxygen and surgically prepared with catheters in the left jugular vein ([Kenny et al., 2008]). The catheter was passed subcutaneously to a polyethylene assembly mounted on the animals’ back. Prior to training, rats were food-restricted so that their body weight was approximately ∼85% that of free-feeding rats. They were then trained to press an active lever for 45 mg food pellets on a fixed ratio 5 time-out 20 s (FR5TO20) schedule of reinforcement. […] Pressing this lever was recorded but was not associated with scheduled consequence. Rats were permitted to respond for food rewards until a reliable response was achieved, defined as >90 pellets earned per 1 h session for three consecutive sessions. Rats were then permitted to respond for food (n = 8) or for nicotine infusions (n = 9) during 1 h daily sessions under the FR5TO20 schedule. […]
Twenty min after injection, rats were placed in the operant boxes and responding for food rewards or nicotine infusions was recorded. […]

Neurokinin, NK1 = assay: NovaScreen competition binding; settings: 1 µM

Chain of α6β2* nAChRs (Q9R0W9 31-494): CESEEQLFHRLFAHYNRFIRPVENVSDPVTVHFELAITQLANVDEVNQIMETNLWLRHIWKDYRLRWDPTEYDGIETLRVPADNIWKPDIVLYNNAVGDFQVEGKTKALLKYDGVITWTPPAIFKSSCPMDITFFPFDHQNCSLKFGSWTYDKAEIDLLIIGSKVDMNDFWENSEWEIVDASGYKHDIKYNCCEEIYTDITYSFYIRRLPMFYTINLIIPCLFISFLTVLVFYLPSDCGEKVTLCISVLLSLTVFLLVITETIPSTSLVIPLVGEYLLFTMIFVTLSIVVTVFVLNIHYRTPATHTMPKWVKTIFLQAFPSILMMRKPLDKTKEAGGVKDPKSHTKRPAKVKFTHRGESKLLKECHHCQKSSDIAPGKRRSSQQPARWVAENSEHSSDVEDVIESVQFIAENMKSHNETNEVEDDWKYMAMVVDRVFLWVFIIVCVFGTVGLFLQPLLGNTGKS
Chain of α6β2* nAChRs (Q9ERK7 26-501): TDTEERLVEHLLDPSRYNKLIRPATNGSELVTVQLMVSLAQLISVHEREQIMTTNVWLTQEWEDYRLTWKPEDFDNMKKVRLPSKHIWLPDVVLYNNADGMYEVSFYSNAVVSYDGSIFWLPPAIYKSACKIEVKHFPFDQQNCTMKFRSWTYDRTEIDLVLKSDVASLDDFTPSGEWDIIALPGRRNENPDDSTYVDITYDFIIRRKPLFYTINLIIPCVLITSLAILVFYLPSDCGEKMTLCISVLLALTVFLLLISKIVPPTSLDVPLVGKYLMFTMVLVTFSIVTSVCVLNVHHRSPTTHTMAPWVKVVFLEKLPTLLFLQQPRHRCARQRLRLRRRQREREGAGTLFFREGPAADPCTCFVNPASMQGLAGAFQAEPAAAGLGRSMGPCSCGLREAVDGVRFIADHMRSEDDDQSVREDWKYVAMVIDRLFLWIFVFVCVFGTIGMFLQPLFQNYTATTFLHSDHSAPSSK
Chain of α6β2* nAChRs (Q8BMN3 31-464 partner): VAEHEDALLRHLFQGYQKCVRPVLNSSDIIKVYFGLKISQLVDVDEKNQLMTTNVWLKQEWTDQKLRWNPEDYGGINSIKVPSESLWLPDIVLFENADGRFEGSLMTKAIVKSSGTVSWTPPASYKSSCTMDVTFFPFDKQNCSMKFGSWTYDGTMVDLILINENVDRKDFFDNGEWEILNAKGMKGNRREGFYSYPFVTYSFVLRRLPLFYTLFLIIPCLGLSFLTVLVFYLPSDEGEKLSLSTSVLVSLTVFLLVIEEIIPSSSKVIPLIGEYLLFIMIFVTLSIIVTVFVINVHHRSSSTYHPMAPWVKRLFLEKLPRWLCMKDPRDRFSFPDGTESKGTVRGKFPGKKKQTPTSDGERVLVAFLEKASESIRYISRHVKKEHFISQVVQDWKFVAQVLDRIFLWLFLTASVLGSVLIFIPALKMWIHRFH
T1 sequence (Q9ERK7 26-501): as the sequence (Q9ERK7 26-501) above
T1 sequence (O70174 31-629): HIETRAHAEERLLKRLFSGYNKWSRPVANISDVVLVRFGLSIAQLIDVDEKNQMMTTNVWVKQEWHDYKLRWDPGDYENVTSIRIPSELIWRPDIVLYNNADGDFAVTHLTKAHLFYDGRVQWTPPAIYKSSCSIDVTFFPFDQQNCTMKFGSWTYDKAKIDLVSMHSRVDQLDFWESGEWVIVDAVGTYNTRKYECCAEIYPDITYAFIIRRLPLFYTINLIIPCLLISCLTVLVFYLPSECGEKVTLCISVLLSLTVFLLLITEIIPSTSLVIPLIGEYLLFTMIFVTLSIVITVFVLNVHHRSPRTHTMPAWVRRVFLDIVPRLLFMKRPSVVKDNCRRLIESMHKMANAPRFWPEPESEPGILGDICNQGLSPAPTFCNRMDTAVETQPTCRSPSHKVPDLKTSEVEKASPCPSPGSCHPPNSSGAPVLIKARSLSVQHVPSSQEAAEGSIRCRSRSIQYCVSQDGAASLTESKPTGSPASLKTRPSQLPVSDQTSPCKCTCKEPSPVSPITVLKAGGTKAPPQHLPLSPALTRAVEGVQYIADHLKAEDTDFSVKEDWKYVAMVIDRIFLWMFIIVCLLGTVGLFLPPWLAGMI
Chain of Glutamate,NMDA,Glycine (Stry-insens Site) (Ionot (P35439 394-863 limits assumed): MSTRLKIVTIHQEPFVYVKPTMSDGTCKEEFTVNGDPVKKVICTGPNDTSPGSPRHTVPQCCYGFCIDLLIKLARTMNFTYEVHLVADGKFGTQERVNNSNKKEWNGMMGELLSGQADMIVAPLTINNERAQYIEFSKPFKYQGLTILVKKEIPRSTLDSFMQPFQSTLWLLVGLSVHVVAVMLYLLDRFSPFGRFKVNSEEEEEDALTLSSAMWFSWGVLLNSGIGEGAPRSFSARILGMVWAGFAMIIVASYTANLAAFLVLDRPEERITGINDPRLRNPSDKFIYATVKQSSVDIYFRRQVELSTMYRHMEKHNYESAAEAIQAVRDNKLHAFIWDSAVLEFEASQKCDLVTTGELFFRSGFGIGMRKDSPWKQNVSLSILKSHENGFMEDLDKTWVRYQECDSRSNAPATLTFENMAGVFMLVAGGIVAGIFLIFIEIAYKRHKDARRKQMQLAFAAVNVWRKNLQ

C1=C(/c2cncnc2)CCCNCC/1 [TC299423, (E)-5-(pyrimidin-5-yl)-1,2,3,4,7,8-hexahydroazocine]
Hit (Opioid, Delta 2 (h)): FALSE
Inhibition (Opioid, Delta 2 (h); [3H]-Naltrindole): -2.12%
86Rb+ efflux Efficacy ([1]; Cortex): 94 ± 7%
EC50 ([1]; Cortex, read-out: 86Rb+ efflux EC50): 2 ± 2 µM
86Rb+ efflux Efficacy ([1]; Thalamus): 139 ± 14%
EC50 ([1]; Thalamus, read-out: 86Rb+ efflux EC50): 0.6 ± 0.1 µM
EC50 ([1]; thalamic and cortical synaptosomes, read-out: EC50 for the DhβE-sensitive α4β2* nAChRs): 0.6 to 2 µM
EC50 (α6β2* nAChRs; WT striatal synaptosomes): 0.03 ± 6e-06 µM
Maximal response, α-CtxMII-sensitive [3H]-dopamine release (α6β2* nAChRs; calculated from Michaelis–Menten curve fit): 0.93 ± 0.08 units
Emax (α6β2* nAChRs; read-out: Neurotransmitter release % Efficacy, WT striatal synaptosomes): 50 ± 20%
Emax (α6β2* nAChRs; read-out: Neurotransmitter release % Efficacy, α5KO striatal synaptosomes): 54 ± 14%
EC50 (α6β2* nAChRs; α5KO striatal synaptosomes): 0.05 µM
Hit [2]: FALSE
Inhibition ([2]; 3H SQ 29,548): 3.14%
Hit (Serotonin, 5HT1A (h)): FALSE
Inhibition (Serotonin, 5HT1A (h); [3H]-8-OH-DPAT): 17.60%
Hit [3]: FALSE
Hit (Adrenergic, Beta 2 (h)): FALSE
Inhibition (Adrenergic, Beta 2 (h); [125]I-Iodo-cyanopindolol): -8.25%
Hit (Dopamine Transporter): FALSE
Inhibition (Dopamine Transporter; [3H]WIN 35,428): -5.87%
Hit (Adrenergic, Alpha 1B): FALSE
Inhibition (Adrenergic, Alpha 1B; [3H]-7-MeOxy-Prazosin): -8.31%
Hit ([4]; 1 µM): FALSE
inhibition at 1 µM ([4]; [3H]-MDL-105,519): 4.34%
Hit (Serotonin, 5HT2A): FALSE
Inhibition (Serotonin, 5HT2A; [3H]Ketanserin): 12.43%
Hit (Serotonin, 5HT1D): FALSE
Inhibition (Serotonin, 5HT1D; [3H]5-CT): 9.99%
Hit (Serotonin, 5HT5A (h)): FALSE
Inhibition (Serotonin, 5HT5A (h); [3H]-LSD): 1.24%
Hit [5]: FALSE
Inhibition ([5]; [3H]-NBTI): 12.86%
Hit (Histamine, H1): FALSE
Inhibition (Histamine, H1; [3H]Pyrilamine): 15.56%
Hit (Muscarinic, M5 (h)): FALSE
Inhibition (Muscarinic, M5 (h); [3H]Scopolamine, N-Methyl): 2.24%
Hit (Neuropeptide, NPY2 (h)): FALSE
Inhibition (Neuropeptide, NPY2 (h); [125I]-PYY): 2.16%
Responding for nicotine infusions vs vehicle (male Wistar rats): no statistically significant changes
Hit (Neurokinin, NK1): FALSE
Inhibition (Neurokinin, NK1; [3H]Substance P): 2.10%
